Blank lines part the entries; values can stand above or below the compound they belong to.
Tests used:
[1] = target: Dual specificity protein kinase CLK1 (Homo sapiens, UniProt P49759)
[2] = target: Dual specificity protein kinase CLK2 (Homo sapiens, UniProt P49760)
[3] = target: Dual specificity protein kinase CLK3 (Homo sapiens, UniProt P49761)
[4] = target: Dual specificity protein kinase CLK4 (Homo sapiens, UniProt Q9HAZ1)
[5] = target: Dual specificity tyrosine-phosphorylation-regulated kinase 1A (Homo sapiens, UniProt Q13627)
[6] = target: Dual specificity tyrosine-phosphorylation-regulated kinase 1B (Homo sapiens, UniProt Q9Y463)
[7] = target: T1, Dual specificity tyrosine-phosphorylation-regulated kinase 2 (Homo sapiens, UniProt Q92630)
T1 sequence (Q92630 whole entry): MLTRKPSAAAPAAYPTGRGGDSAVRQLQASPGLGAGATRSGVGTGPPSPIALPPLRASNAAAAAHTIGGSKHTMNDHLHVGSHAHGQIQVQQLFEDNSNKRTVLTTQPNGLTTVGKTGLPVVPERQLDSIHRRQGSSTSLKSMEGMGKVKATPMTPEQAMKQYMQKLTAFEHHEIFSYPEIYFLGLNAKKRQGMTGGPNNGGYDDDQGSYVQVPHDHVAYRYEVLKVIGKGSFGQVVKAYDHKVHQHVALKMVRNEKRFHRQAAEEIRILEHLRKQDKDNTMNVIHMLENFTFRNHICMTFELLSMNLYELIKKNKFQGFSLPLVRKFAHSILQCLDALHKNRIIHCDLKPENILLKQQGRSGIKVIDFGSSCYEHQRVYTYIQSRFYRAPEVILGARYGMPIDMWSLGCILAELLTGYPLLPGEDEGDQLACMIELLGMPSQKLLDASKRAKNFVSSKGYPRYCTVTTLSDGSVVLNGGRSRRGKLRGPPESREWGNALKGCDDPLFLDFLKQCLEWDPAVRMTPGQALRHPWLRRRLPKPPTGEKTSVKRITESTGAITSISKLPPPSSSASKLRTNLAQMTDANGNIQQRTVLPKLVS

[8] = target: T2, Dual specificity tyrosine-phosphorylation-regulated kinase 3 (Homo sapiens, UniProt O43781)
T2 sequence (O43781 whole entry): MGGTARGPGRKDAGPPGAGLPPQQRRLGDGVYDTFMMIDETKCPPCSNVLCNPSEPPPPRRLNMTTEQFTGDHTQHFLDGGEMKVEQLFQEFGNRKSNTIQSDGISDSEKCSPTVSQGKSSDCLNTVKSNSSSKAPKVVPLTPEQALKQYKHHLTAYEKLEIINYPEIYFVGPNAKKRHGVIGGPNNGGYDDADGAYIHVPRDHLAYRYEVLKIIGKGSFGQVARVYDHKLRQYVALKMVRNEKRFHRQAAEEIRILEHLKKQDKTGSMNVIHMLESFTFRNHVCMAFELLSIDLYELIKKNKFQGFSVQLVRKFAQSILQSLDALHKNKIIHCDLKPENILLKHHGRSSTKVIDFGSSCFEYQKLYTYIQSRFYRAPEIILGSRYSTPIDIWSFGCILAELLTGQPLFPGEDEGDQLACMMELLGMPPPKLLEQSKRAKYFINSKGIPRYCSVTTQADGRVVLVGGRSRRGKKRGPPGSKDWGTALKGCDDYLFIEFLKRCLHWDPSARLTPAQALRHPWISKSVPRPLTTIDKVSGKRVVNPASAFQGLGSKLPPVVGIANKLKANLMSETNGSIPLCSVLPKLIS

SRSF protein kinase 1 [9] = target: T3, SRSF protein kinase 1 (Homo sapiens, UniProt Q96SB4); conditions: at 1 µM
SRSF protein kinase 1 [10] = target: T3, SRSF protein kinase 1
[11] = target: SRSF protein kinase 2 (Homo sapiens) (UniProt P78362)
[12] = target: ATPase family AAA domain-containing protein 2 (Homo sapiens, UniProt Q6PL18); test: Selectivity interaction (BROMOscan) EUB0001074a ATAD2
[13] = target: ATPase family AAA domain-containing protein 2B (Homo sapiens, UniProt Q9ULI0); test: Selectivity interaction (BROMOscan) EUB0001074a ATAD2B
[14] = target: Bromodomain adjacent to zinc finger domain protein 2A (Homo sapiens, UniProt Q9UIF9); test: Selectivity interaction (BROMOscan) EUB0001074a BAZ2A
[15] = target: T4, Bromodomain-containing protein 4 (Homo sapiens, UniProt O60885); test: Selectivity interaction (BROMOscan) EUB0001074a BRD4
[16] = target: T4, Bromodomain-containing protein 4; test: Selectivity interaction (AlphaScreen) EUB0001074a BRD4
[17] = target: Bromodomain-containing protein 7 (Homo sapiens, UniProt Q9NPI1); test: Selectivity interaction (BROMOscan) EUB0001074a BRD7
[18] = target: T5, Bromodomain-containing protein 9 (Homo sapiens, UniProt Q9H8M2); test: Selectivity interaction (BROMOscan) EUB0001074a BRD9
T5 sequence (Q9H8M2 whole entry): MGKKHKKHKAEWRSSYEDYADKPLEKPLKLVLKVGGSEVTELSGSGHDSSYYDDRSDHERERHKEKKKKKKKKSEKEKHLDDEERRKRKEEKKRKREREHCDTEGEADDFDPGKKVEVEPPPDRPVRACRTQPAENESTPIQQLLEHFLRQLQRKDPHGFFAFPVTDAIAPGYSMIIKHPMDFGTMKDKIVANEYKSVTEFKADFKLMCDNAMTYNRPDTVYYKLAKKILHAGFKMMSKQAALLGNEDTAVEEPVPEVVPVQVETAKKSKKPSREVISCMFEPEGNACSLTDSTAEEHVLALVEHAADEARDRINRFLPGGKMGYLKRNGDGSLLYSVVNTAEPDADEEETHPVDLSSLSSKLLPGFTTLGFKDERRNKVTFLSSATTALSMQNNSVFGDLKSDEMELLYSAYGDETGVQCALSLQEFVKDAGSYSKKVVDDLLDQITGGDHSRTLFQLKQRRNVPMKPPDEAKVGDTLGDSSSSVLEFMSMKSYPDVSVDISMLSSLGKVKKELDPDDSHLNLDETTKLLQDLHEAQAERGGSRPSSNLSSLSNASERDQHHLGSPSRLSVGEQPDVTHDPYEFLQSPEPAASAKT

[19] = target: T5, Bromodomain-containing protein 9; test: Selectivity interaction (AlphaScreen) EUB0001074a BRD9
Peregrin = Peregrin (Homo sapiens, UniProt P55201); test: Selectivity interaction (AlphaScreen) EUB0001074a BRPF1
[20] = target: T6, Chromatin remodeling regulator CECR2 (Homo sapiens, UniProt Q9BXF3); test: Selectivity interaction (BROMOscan) EUB0001074a CECR2
[21] = target: T6, Chromatin remodeling regulator CECR2; test: Selectivity interaction (AlphaScreen) EUB0001074a CECR2
CREB-binding protein = CREB-binding protein (Homo sapiens, UniProt Q92793); test: Selectivity interaction (BROMOscan) EUB0001074a CREBBP
[22] = target: Nucleosome-remodeling factor subunit BPTF (Homo sapiens, UniProt Q12830); test: Selectivity interaction (AlphaScreen) EUB0001074a BPTF
[23] = target: Histone acetyltransferase KAT2B (Homo sapiens, UniProt Q92831); test: Selectivity interaction (BROMOscan) EUB0001074a KAT2B
[24] = target: SWI/SNF-related matrix-associated actin-dependent regulator of chromatin subfamily A member 2 (Homo sapiens, UniProt P51531); test: Selectivity interaction (BROMOscan) EUB0001074a SMARCA2
[25] = target: TATA box-binding protein-associated factor RNA polymerase I subunit A (Homo sapiens, UniProt Q15573); test: Selectivity interaction (AlphaScreen) EUB0001074a TAF1A
[26] = target: E3 ubiquitin-protein ligase TRIM33 (Homo sapiens, UniProt Q9UPN9); test: Selectivity interaction (BROMOscan) EUB0001074a TRIM33
[27] = target: T7, Mitogen-activated protein kinase 14 (Homo sapiens, UniProt Q16539); test: Selectivity interaction (Tracer competition assays (Reaction Biology)) EUB0001201a MAPK14
[28] = target: T7, Mitogen-activated protein kinase 14; test: Selectivity interaction (NanoBRET assay (using HEK293T cells)) EUB0001201a MAPK14; type: cell-based, HEK-293T
Activin receptor type-1B = Activin receptor type-1B (Homo sapiens, UniProt P36896); test: Selectivity interaction (NanoBRET assay (HEK293T cells)) EUB0001465a ACVR1B; type: cell-based, HEK-293T
[29] = target: Bone morphogenetic protein receptor type-1A (Homo sapiens, UniProt P36894); test: Selectivity interaction (NanoBRET assay (HEK293T cells)) EUB0001465a BMPR1A; type: cell-based, HEK-293T
[30] = target: Bone morphogenetic protein receptor type-1B (Homo sapiens, UniProt O00238); test: Selectivity interaction (NanoBRET assay (HEK293T cells)) EUB0001465a BMPR1B; type: cell-based, HEK-293T
TGF-beta receptor type-1 = TGF-beta receptor type-1 (Homo sapiens, UniProt P36897); test: Selectivity interaction (NanoBRET assay (HEK293T cells)) EUB0001465a TGFBR1; type: cell-based, HEK-293T
[31] = target: Casein kinase I isoform alpha (Homo sapiens, UniProt P48729); test: Selectivity interaction (Kinase panel (Reaction Biology)) EUB0001205a CSNK1A1; conditions: at 1 µM
[32] = target: Casein kinase I isoform alpha-like (Homo sapiens, UniProt Q8N752); test: Selectivity interaction (Tracer competition assays (Reaction Biology) ) EUB0001205a CSNK1A1L
[33] = target: T8, Casein kinase I isoform delta (Homo sapiens, UniProt P48730); test: Selectivity interaction (Kinase panel (Reaction Biology)) EUB0001205a CSNK1D; conditions: at 1 µM
[34] = target: T8, Casein kinase I isoform delta; test: Selectivity interaction (Western Blot assay (autophosphorylation of CSNK1D in HEK293T-REx cells)) EUB0001205a CSNK1D; type: cell-based, T-REx-293
[35] = target: T9, Casein kinase I isoform epsilon (Homo sapiens, UniProt P49674); test: Selectivity interaction (Kinase panel (Reaction Biology)) EUB0001205a CSNK1E; conditions: at 1 µM
Target sequence in this assay (P49674 whole entry, looked up, canonical isoform): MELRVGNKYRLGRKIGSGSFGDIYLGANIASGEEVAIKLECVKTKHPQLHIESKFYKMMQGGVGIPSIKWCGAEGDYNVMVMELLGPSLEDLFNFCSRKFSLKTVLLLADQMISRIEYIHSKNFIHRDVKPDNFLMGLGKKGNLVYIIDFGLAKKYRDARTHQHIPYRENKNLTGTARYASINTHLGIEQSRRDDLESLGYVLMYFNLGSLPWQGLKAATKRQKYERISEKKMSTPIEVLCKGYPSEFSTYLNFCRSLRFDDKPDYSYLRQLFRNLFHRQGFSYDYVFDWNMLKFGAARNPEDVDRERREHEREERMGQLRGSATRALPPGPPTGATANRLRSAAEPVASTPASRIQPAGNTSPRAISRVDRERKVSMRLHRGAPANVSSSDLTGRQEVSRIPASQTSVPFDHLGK

[36] = target: T9, Casein kinase I isoform epsilon; test: Selectivity interaction (Western Blot assay (autophosphorylation of CSNK1E in HEK293T-REx cells)) EUB0001205a CSNK1E; type: cell-based, T-REx-293
Target sequence in this assay (P49674 whole entry, canonical isoform): as the sequence (P49674 whole entry, looked up, canonical isoform) above

[37] = target: TRAF2 and NCK-interacting protein kinase (Homo sapiens) (UniProt Q9UKE5); test: Selectivity interaction (Kinase panel (Reaction Biology)) EUB0001205a TNIK; conditions: at 1 µM
[38] = target: T10, Tyrosine-protein kinase ZAP-70 (Homo sapiens) (UniProt P43403); test: Selectivity interaction (Kinase panel (Reaction Biology)) EUB0001205a ZAP70; conditions: at 1 µM
T10 sequence (whole entry): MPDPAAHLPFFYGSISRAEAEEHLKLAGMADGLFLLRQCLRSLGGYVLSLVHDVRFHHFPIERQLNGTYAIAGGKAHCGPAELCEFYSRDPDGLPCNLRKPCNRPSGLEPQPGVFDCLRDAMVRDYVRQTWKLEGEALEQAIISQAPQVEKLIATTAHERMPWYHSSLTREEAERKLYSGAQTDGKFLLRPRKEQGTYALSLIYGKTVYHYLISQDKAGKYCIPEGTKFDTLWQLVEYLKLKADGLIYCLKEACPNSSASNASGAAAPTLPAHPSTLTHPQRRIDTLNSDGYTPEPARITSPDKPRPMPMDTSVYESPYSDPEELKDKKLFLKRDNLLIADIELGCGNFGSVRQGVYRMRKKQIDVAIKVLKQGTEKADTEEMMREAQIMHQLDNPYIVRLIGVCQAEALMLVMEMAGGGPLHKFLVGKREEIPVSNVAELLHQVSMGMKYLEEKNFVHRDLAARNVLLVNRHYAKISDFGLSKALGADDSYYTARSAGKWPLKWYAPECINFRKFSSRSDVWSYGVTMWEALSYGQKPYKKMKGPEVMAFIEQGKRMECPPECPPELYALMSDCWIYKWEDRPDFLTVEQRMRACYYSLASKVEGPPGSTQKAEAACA

T6 sequence (Q9BXF3 whole entry): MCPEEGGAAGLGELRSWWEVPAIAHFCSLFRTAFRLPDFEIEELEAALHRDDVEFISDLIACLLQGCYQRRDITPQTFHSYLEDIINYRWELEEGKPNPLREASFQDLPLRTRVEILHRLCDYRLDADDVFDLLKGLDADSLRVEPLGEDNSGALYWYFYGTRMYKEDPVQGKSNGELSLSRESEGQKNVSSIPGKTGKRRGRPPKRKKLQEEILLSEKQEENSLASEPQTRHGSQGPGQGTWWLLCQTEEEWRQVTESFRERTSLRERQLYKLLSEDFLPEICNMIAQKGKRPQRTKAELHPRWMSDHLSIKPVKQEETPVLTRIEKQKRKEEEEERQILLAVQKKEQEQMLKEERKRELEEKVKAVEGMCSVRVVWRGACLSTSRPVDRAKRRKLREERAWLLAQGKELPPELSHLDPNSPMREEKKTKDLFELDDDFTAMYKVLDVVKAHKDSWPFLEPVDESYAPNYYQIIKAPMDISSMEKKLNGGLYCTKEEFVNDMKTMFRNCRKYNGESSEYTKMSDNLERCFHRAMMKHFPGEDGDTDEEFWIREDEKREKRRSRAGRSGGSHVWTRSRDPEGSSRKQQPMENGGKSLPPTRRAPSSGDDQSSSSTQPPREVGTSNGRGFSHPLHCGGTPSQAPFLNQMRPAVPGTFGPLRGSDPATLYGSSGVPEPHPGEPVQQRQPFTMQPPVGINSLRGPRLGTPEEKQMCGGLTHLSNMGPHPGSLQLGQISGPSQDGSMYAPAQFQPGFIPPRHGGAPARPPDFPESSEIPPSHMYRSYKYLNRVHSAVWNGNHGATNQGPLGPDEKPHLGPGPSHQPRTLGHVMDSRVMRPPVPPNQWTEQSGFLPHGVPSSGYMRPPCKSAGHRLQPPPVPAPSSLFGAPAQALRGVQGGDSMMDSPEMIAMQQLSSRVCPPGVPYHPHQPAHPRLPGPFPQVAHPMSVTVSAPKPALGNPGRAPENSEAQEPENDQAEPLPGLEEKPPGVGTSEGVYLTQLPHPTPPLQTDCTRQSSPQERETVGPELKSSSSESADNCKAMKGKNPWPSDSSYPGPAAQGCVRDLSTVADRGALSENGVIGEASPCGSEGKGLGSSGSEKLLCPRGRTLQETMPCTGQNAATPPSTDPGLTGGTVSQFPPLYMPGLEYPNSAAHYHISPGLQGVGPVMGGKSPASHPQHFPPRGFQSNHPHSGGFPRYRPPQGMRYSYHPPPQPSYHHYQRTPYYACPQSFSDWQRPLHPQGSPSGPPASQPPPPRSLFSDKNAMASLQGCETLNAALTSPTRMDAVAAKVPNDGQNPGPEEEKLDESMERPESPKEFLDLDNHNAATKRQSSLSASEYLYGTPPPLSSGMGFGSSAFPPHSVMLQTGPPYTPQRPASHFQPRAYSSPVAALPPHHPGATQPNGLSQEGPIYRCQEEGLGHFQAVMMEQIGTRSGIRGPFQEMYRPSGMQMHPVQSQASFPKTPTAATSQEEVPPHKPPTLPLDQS
T3 sequence (Q96SB4 whole entry): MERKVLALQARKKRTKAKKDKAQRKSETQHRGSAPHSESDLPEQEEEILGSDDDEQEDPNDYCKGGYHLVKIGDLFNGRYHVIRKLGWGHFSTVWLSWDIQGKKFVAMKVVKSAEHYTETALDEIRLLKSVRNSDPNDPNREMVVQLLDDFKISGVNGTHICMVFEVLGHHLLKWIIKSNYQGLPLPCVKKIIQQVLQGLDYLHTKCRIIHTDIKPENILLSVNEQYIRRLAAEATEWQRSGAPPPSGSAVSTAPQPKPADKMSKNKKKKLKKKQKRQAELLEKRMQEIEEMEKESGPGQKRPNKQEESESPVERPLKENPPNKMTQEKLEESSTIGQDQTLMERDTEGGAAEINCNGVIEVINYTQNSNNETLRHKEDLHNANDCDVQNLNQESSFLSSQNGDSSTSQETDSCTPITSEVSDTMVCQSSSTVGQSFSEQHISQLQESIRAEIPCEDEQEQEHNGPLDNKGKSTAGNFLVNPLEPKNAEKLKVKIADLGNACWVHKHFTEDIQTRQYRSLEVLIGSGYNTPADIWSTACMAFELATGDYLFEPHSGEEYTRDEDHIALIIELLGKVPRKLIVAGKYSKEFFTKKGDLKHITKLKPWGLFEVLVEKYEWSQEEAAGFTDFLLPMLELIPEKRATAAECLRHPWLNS
T7 sequence (Q16539 whole entry): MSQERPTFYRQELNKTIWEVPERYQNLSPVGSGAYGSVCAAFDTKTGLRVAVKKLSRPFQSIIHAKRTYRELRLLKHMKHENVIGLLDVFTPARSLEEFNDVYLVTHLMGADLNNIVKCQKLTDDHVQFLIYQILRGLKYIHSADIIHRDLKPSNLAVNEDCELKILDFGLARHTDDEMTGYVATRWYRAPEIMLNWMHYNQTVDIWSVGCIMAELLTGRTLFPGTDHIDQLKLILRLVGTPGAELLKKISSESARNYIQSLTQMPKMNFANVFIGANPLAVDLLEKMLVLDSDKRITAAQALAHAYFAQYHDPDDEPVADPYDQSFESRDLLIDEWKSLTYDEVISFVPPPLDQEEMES
SRSF protein kinase 2 (Homo sapiens), sequence (P78362 whole entry, looked up, the tested form may be a part): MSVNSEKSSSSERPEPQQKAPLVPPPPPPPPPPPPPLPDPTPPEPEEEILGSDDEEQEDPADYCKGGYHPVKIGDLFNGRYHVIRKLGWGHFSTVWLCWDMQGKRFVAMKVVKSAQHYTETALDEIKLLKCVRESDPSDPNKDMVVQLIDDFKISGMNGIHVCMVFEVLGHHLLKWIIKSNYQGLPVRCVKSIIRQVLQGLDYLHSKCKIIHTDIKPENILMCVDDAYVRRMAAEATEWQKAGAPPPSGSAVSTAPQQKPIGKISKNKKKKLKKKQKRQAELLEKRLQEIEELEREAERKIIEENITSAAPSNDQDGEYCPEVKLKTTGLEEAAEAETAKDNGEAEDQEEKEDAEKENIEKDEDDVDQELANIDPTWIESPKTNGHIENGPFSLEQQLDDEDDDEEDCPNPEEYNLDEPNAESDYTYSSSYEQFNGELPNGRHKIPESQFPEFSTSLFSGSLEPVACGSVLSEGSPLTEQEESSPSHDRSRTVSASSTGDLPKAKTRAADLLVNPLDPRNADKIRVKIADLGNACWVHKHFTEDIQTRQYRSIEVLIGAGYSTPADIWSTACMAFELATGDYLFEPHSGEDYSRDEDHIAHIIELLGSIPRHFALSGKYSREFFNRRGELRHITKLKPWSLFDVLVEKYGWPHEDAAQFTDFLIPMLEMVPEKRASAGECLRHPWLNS
E3 ubiquitin-protein ligase TRIM33, sequence (Q9UPN9 whole entry): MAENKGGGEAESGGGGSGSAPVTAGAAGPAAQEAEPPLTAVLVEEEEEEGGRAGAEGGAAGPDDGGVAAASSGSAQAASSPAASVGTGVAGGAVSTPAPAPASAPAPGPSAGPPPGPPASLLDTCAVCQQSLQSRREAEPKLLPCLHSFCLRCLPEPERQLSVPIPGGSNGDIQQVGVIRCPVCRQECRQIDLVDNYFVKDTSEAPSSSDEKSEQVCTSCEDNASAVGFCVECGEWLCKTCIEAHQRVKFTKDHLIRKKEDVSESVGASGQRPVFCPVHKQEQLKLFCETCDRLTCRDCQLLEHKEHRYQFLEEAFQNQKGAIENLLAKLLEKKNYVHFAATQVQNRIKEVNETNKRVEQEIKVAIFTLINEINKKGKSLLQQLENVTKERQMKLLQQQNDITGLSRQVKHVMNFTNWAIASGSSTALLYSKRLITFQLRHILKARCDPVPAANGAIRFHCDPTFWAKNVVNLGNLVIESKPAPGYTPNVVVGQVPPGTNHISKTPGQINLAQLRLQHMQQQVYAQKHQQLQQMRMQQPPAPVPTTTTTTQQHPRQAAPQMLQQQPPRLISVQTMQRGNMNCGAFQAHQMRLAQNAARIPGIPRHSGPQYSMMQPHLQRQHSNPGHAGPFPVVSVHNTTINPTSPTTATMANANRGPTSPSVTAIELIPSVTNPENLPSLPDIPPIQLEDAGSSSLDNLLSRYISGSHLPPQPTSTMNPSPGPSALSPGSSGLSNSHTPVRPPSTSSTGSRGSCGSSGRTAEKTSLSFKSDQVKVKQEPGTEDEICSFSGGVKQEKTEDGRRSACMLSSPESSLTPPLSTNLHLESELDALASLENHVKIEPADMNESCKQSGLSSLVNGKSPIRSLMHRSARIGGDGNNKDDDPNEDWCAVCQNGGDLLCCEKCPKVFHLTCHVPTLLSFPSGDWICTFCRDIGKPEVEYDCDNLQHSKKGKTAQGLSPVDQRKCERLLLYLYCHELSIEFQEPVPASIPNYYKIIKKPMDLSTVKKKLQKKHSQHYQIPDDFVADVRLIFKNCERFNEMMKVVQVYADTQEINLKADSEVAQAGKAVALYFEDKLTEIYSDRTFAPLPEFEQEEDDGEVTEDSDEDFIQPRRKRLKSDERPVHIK

SMILES: CN(c1ncccc1CNc1ccnc(-c2nc3c(F)c(Cl)ccc3[nH]2)n1)S(C)(=O)=O
- IC50 [1]: > 10 µM
- IC50 [2]: > 10 µM
- IC50 [3]: > 10 µM
- IC50 [4]: > 10 µM
- IC50 [5]: > 10 µM
- IC50 [6]: > 10 µM
- IC50 [7]: > 10 µM
- IC50 [8]: > 10 µM
- % of control (SRSF protein kinase 1 [9]): 8.76%
- dTM (SRSF protein kinase 1 [10]): 9.1 K
- dTM [11]: 4 K

SMILES: CCc1cc2cc(NS(=O)(=O)c3ccc(C#N)cc3)ccc2n(CC)c1=O
- IC50 [12]: > 100 µM
- IC50 [13]: > 100 µM
- IC50 [14]: > 100 µM
- IC50 [15]: > 100 µM
- IC50 [16]: > 200 µM
- IC50 [17]: > 100 µM
- IC50 [18]: > 100 µM
- IC50 [19]: > 200 µM
- IC50 (Peregrin): > 200 µM
- IC50 [20]: > 100 µM
- IC50 [21]: > 200 µM
- IC50 (CREB-binding protein): > 100 µM
- IC50 [22]: > 200 µM
- IC50 [23]: > 100 µM
- IC50 [24]: > 77 µM
- IC50 [25]: > 200 µM
- IC50 [26]: > 100 µM

SMILES: COc1cc(-c2cncc(-c3ccc(N4CCN(C(C)C)CC4)cc3)c2C)cc(F)c1C(=O)N1CCCC1
- IC50 (Activin receptor type-1B): > 0.01 µM
- IC50 [29]: > 0.01 µM
- IC50 [30]: > 0.01 µM
- IC50 (TGF-beta receptor type-1): > 0.01 µM

Further lines, results first:

- IC50 [27]: > 3 µM
- IC50 [28]: 9.9 µM
SMILES: CCc1ccc(-c2ncn(CC3(F)CCN(C)CC3)c2-c2ccnc3[nH]ccc23)nc1

- % of inhibition [31]: 6%
- IC50 [32]: 0.52 µM
- % of inhibition [33]: -6%
- IC50 [34]: 0.5 µM
- % of inhibition [35]: 0%
- IC50 [36]: 12.4 µM
- % of inhibition [37]: 43%
- % of inhibition [38]: 71%
SMILES: CN1CCC(F)(Cn2cnc(-c3ccc(F)cn3)c2-c2ccnc3[nH]ccc23)CC1
